Entries after “also recorded” stand apart in the source; their conditions may differ.
Assays:
[1] = system: neuron cultures from the brain cortex; experiment: Excitotoxic neuronal death in neuron cultures (glutamate or NMDA); type: cell-based, Sprague Dawley rat; conditions: glutamate or NMDA 50 μM for 10 minutes; antioxidant 100 nM, kept 3 hours; p<0.001 vs agonist only
Description: The neuron cultures were obtained from the brain cortex of Sprague Dawley rat embryos of 18 days of gestation (Larm et al., 1996, Eur J Pharmacol 314: 249-54; Cheung et al., 1998, Neuropharmacol 37: 1419-29). The cells were nourished Neurobasal medium supplemented with B27 supplement (Invitrogen).
The glutamate or NMDA (N-methyl-D-aspartate) agonists were applied, both at a concentration of 50 μM, for 10 minutes. The antioxidants, morin and mangiferin, were added during the exposure of the agonist at a concentration of 100 nM and were maintained in the medium for 3 hours until cell viability was measured by means of fluorescein diacetate. […] The values are shown as the mean±S.E.M. of the quadruplicates from 3-4 different experiments.

[2] = system: oligodendrocyte cultures; experiment: Oligodendrocyte culture death caused by AMPA; type: cell-based; conditions: AMPA 10 μM for 5 minutes; polyphenol 10-100000 nM added 24 hours before; read 24 hours later
Description: The oligodendrocyte cultures were in turn incubated with AMPA [(RS)-α-amino-3-hydroxy-5-methyl-4-isoxazolepropionic hydrobromic acid] agonists, at a 10 μM concentration for 5 minutes. The polyphenols, mangiferin and morin, were added 24 hours before the exposure of the agonist and until the end of the experiments at concentrations comprised between 10 and 100000 nM, and cell viability was measured by means of calcein fluorimetry 24 hours later. The values shown in FIG. 1B show the percentage of normalized cell death±S.E.M. of the triplicates according to the logarithm of the concentration from three different experiments. *: p<0.05; **: p<0.01.

[3] = system: superoxide production in the CA1 hippocampus region; experiment: Superoxide production in the CA1 hippocampus region after transient cerebral ischemia; type: in vivo, Sprague-Dawley rats; conditions: 1 day after transient global ischemia; i.p. 10 mg/kg 30 minutes after ischemia, then 5 mg/kg every 12 hours
Description: (§1) Four experimental groups of Sprague-Dawley rats (each group contained 20 animals) were randomly selected: control (C), ischemic (ISCH), ischemic animals treated with mangiferin (I+MNG), and ischemic animals treated with morin (I+MOR). Transient cerebral ischemia was induced by means of occlusion of the vertebral and common carotid arteries for 10 minutes. The criteria for determining cerebral ischemia were the bilateral loss of stretch reflex, limb stiffness and mydriasis. The rectal and body temperature was maintained at 37° C. during surgery and the ischemia. […] The group of control animals was treated similarly to the group with ischemia, but none of their common carotid arteries was occluded.
(§2) Mangiferin and morin were administered intraperitoneally at a concentration of 10 mg/kg of body weight, 30 minutes after the ischemic stimulus and then at a concentration of 5 mg/kg every 12 hours for 7 days.
The method described by Chan et al., 1998 (J Neurosci 18: 8292-99) was followed. […] The fluorescence was examined in cryostat sections (10 μm) and was analyzed with a fluorescence microscope (Zeiss Axiophot). The images were taken with a digital camera (Axio Vision, Zeiss) and analyzed with the Image Pro Plus program.

[4] = system: transient cerebral ischemia; experiment: NeuN+ cell count in the pyramidal layer of CA1 hippocampus after transient cerebral ischemia; type: in vivo, Sprague-Dawley rats; conditions: 7 and 70 days after ischemia; compared with placebo; i.p. 10 mg/kg, then 5 mg/kg every 12 hours for 7 days
Description: as §1
Mangiferin and morin were administered intraperitoneally at a concentration of 10 mg/kg of body weight, 30 minutes after the ischemic stimulus and then at a concentration of 5 mg/kg every 12 hours for 7 days. […]
The number of positive NeuN cells was quantified in the pyramidal layer of the CA1 hippocampus in control rats and operated rats, and in animals subjected to transient cerebral ischemia 7 and 70 days after the reperfusion (n=4-5 animals for every experimental group). The amounts were collected both from the left and the right hemisphere of each section analyzed by immunohistochemistry, with two sections for every experiment from at least three independent experiments. […]

[5] = system: transient cerebral ischemia; experiment: Classically conditioned eyelid responses after global ischemia; type: in vivo, Sprague-Dawley rats; conditions: rats subjected to global ischemia; 10 conditioning sessions
Description: as §1, §2
The study of the eyelid responses by means of classic conditioning was carried out in 10 Sprague-Dawley rats per experimental group. Each animal was anesthetized with ketamine (100 mg/kg) and xylazine (20 mg/kg). […]
A quantitative analysis of the classically conditioned eyelid responses from […] (C, dotted line) and mice with ischemia (ISCH, circles), and from mice with ischemia treated with mangiferin (I+MNG, squares) or morin (I+MOR, triangles), is shown in FIG. 4. […]

Molecule | excitotoxic neuronal death (cell viability by fluorescein diacetate) [1] | oligodendroglial death induced by excitotoxic stimuli (cell viability by calcein fluorimetry) [2] | fluorescence levels emitted by oxidized hydroethidine in neurons of the pyramidal layer of the CA1 region [3] | number of NeuN+ cells in the pyramidal layer of the CA1 hippocampus [4] | learning capacity (conditioned eyelid responses) [5]
morin | significantly attenuates excitotoxic neuronal death | protect from neuronal and oligodendroglial death | reduction | larger; also recorded: significant increase of positive NeuN^+ cells | conserve the learning capacity
O=c1c2cc(O)c(O)cc2oc2cc(O)c([C@@H]3O[C@H](CO)[C@@H](O)[C@H](O)[C@H]3O)c(O)c12 [mangiferin] | significantly attenuates excitotoxic neuronal death | protect from neuronal and oligodendroglial death | reduction | larger; also recorded: significant increase of positive NeuN^+ cells | conserve the learning capacity
